The record followed here is ChEMBL document CHEMBL4033623, “Synthesis of xanthone derivatives and studies on the inhibition against cancer cells growth and synergistic combinations of them” (Eur J Med Chem, 2017).

Assay [1] deals with MDA-MB-231. In words: Antiproliferative activity against human MDA-MB-231 cells after 48 hrs by CCK8 assay. It counts as functional, cell-based. Particulars: MDA-MB-231, 48 h.
In the next assay the test system is MCF7. The experiment in a line: Antiproliferative activity against human MCF7 cells after 48 hrs by CCK8 assay. Particulars: MCF7, 48 h. It counts as functional, cell-based.
For another assay, the system named is COLO 320. The experiment in a line: Antiproliferative activity against human COLO320 cells after 48 hrs by CCK8 assay. It counts as functional, cell-based. The settings on record: COLO 320, 48 h.
Assay [2] has as its system MDA-MB-231. In words: Synergistic antiproliferative activity against human MDA-MB-231 cells at compound to DMXAA mol ratio of 1:1 after 48 hrs by CCK8 assay. It counts as functional, cell-based. The settings on record: MDA-MB-231, 48 h.
For another assay, the system named is K562. The experiment in a line: Synergistic antiproliferative activity against human K562 cells at compound to DMXAA mol ratio of 1:1 after 48 hrs by CCK8 assay. It counts as functional, cell-based. Particulars: K562, 48 h.
Assay [3] relates to MDA-MB-231. The experiment in a line: Induction of apoptosis in human MDA-MB-231 cells assessed as early apoptotic cells at 0.2 uM after 48 hrs by Annexin-V/FITC/PI staining based flow cytometry (reference value: 0.44 %). It counts as functional.
The subject of assay [4] is MDA-MB-231. The experiment in a line: Induction of apoptosis in human MDA-MB-231 cells assessed as late apoptotic cells at 0.4 uM after 48 hrs by Annexin-V/FITC/PI staining based flow cytometry (reference value: 1.50 %). It counts as functional.
Assay [5] has as its system MDA-MB-231. The experiment in a line: Induction of apoptosis in human MDA-MB-231 cells assessed as necrotic cells at 0.4 uM after 48 hrs by Annexin-V/FITC/PI staining based flow cytometry (reference value: 1.55 %). It counts as functional.
Assay [6] deals with MDA-MB-231. In words: Induction of apoptosis in human MDA-MB-231 cells assessed as necrotic cells at 0.8 uM after 48 hrs by Annexin-V/FITC/PI staining based flow cytometry (reference value: 1.55 %). It counts as functional.
For assay [7], the system named is MDA-MB-231. The experiment in a line: Synergistic induction of apoptosis in human MDA-MB-231 cells assessed as viable cells at 0.2 uM after 48 hrs in presence of DMXAA by Annexin-V/FITC/PI staining based flow cytometry (reference value: 99.95 %). Particulars: MDA-MB-231, 48 h, read-out: Activity. It counts as functional.
The test system of assay [8] is MDA-MB-231. The experiment in a line: Synergistic induction of apoptosis in human MDA-MB-231 cells assessed as necrotic cells at 0.2 uM after 48 hrs in presence of DMXAA by Annexin-V/FITC/PI staining based flow cytometry (reference value: 0.00 %). It counts as functional.
For assay [9], the system named is MDA-MB-231. The experiment in a line: Synergistic induction of apoptosis in human MDA-MB-231 cells assessed as late apoptotic cells at 0.8 uM after 48 hrs in presence of DMXAA by Annexin-V/FITC/PI staining based flow cytometry (reference value: 0.00 %). It counts as functional.
In assay [10] the test system is MDA-MB-231. In words: Synergistic induction of apoptosis in human MDA-MB-231 cells assessed as viable cells at 0.4 uM after 48 hrs in presence of DMXAA by Annexin-V/FITC/PI staining based flow cytometry (reference value: 99.95 %). It counts as functional. The settings on record: MDA-MB-231, 48 h, read-out: Activity.
The test system of assay [11] is MDA-MB-231. The experiment in a line: Decrease in caspase-9 level in human MDA-MB-231 cells at 0.2 to 0.8 uM after 48 hrs by Western blot analysis. It counts as functional, cell-based.
Assay [12] concerns MDA-MB-231. In words: Synergistic induction of apoptosis in human MDA-MB-231 cells assessed as increase in cleaved PARP level at 0.1 to 0.5 uM after 48 hrs in presence of DMXAA by Western blot analysis. It counts as functional, cell-based.
In assay [13] the test system is MDA-MB-231. In words: Synergistic increase in p53 level in human MDA-MB-231 cells at 0.1 to 0.5 uM after 48 hrs in presence of DMXAA by Western blot analysis. It counts as functional, cell-based.
In assay [14] the test system is MDA-MB-231. In words: Cell cycle arrest in human MDA-MB-231 cells assessed as increase in accumulation at G2/M phase at 0.8 uM after 48 hrs by propidium iodide staining based flow cytometric method relative to control. It counts as functional.
Assay [15] has as its system MDA-MB-231. In words: Synergistic cell cycle arrest in human MDA-MB-231 cells assessed as accumulation at S phase 0.2 to 0.8 uM after 48 hrs in presence of DMXAA by propidium iodide staining based flow cytometric method relative to control. It counts as functional.
Assay [16] relates to MDA-MB-231. The experiment in a line: Synergistic cell cycle arrest in human MDA-MB-231 cells assessed as accumulation at G2/M phase at 0.2 to 0.8 uM after 48 hrs in presence of DMXAA by propidium iodide staining based flow cytometric method. It counts as functional.
The subject of assay [17] is MDA-MB-231. In words: Induction of apoptosis in human MDA-MB-231 cells after 48 hrs by Annexin-V/FITC/PI staining based flow cytometry. It counts as functional, cell-based.

Molecules are shown by their SMILES. Calls of active or inactive are those of the source. The rule behind the calls is not given here.

As for `O=c1c2cc(Br)ccc2oc2cc(O)cc(O)c12`, the IC50 in the assay with MDA-MB-231 [1] came out at 0.46 µM; in the assay with MCF7, 3.4 µM; in the assay on COLO 320, 10.5 µM; with MDA-MB-231 [2], 0.042 µM; in the assay on K562 it was 10.2 µM. The Activity in the assay with MDA-MB-231 [3] stood at 0.98%; with MDA-MB-231 [4], 11.53%; in the assay with MDA-MB-231 [5], 38.81%; in the assay with MDA-MB-231 [6], 45.02%; with MDA-MB-231 [8], 38.43%; with MDA-MB-231 [9] it was 34.65%. For the same molecule, the Activity was 21.8% with MDA-MB-231 [14], 26.5% in the assay on MDA-MB-231 [15] and “Dose-dependent effect” with MDA-MB-231 [17]. Moreover, the viability at 0.2 µM in the assay with MDA-MB-231 [7] amounted to 48.6%. In addition, the viability at 0.4 µM with MDA-MB-231 [10] turned out to be 46.3%. Besides, the outcome with MDA-MB-231 [11], in the assay with MDA-MB-231 [12] and in the assay on MDA-MB-231 [13] was Active. For the same molecule, the result in the assay with MDA-MB-231 [16] was inactive.
